What was measured:
cholesterol absorption = assay: in vivo cholesterol absorption study, serum radioactivity after oral [4-^14C] cholesterol; details: Rattus norvegicus, 6 h, normal rats, serum radioactivity at six hours; for ED50: read-out: ED50 (effective dose inhibiting fifty percent of the cholesterol absorption of the control animals)
Experimental: The in vivo cholesterol absorption studies were conducted in normal rats by oral administration of the compound being tested in propylene glycol and olive oil followed by oral administration of [4-^14 C] cholesterol in propylene glycol and olive oil, otherwise following the procedure of Cayen et al., J. Lipid Res. 20 162 (1979). The serum radioactivity was measured at six hours after dosing. The results of this study are reported in the following Table, where available, as percent decrease compared to control and in terms of the effective dose (ED50) inhibiting fifty-percent of the absorption of the control animals.

[1] = target: T1, cholesterol esterase (EC 3.1.1.13) (Bos taurus, UniProt P30122); assay: in vitro inhibition of cholesteryl ester formation by cholesterol esterase; format: biochemical, bovine; details: for IC50: 37° C., cholesterol and oleic acid, cholesterol esterase from bovine pancreas, read-out: IC50 (concentration that inhibits one-half of the ester formation)
T1 construct: purchased Sigma Chemical Company, St. Louis, Mo., USA C-1892; host or cells: bovine pancreas
Experimental: The ability of the compounds of this invention to inhibit the formation of cholesteryl esters and thereby interfere with and prevent assimilation of cholesterol into the lymphatic system and ultimately the blood stream was established by incubating the compounds at 37° C. with a mixture of cholesterol and oleic acid in the presence of buffered cholesterol esterase [(EC 3.1.1.13) Sigma Chemical Company, St. Louis, Mo., USA, No. C-1892, from bovine pancreas] and measuring the amount of ester formed, according to the procedure of Field, J. of Lipid Research, 25 389 (1984).

[2] = vs control, read-out: Decrease in [^14C] Cholesterol Absorption

T1 sequence (P30122 19-597): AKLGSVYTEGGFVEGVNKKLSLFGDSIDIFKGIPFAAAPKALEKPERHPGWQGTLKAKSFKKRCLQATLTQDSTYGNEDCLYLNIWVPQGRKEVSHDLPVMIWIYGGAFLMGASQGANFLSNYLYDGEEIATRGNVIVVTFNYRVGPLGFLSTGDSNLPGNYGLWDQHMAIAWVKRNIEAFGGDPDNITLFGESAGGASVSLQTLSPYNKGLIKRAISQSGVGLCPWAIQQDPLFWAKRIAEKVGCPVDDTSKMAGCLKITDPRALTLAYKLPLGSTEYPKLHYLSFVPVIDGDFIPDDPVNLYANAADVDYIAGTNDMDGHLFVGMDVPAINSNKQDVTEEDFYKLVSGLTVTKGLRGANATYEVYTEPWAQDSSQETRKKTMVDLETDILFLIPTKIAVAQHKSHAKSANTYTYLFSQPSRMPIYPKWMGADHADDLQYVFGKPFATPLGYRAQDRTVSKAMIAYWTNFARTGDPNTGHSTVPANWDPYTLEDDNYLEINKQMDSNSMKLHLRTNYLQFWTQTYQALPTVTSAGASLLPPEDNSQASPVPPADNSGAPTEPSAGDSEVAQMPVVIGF

SMILES | IC50 [1] | other results
CCCCNC(=O)Oc1ccc(Oc2ccccc2)cc1 [Example 1, Butylcarbamic acid 4-phenoxyphenyl ester] | 2 µM | inhibition in vivo at 100 mg/kg (cholesterol absorption; [2]): 82%; ED50 (cholesterol absorption): 24 mg/kg
O=C(Oc1ccc(Oc2ccccc2)cc1)N1CCCCC1 [Example 2, 1-Piperidinecarboxylic acid 4-phenoxyphenyl ester] | 0.13 µM | inhibition in vivo at 100 mg/kg (cholesterol absorption; [2]): 82%; ED50 (cholesterol absorption): 24 mg/kg
O=C(NCCCCc1ccccc1)Oc1ccc(Oc2ccccc2)cc1 [Example 3, (4-Phenylbutyl)carbamic acid 4-phenoxyphenyl ester] | 16 µM | inhibition in vivo at 10 mg/kg (cholesterol absorption; 10 mg/kg, vs control, read-out: Decrease in [^14C] Cholesterol Absorption): 70%; ED50 (cholesterol absorption): 6 mg/kg
CC(C)CCCC(C)NC(=O)Oc1ccc(Oc2ccccc2)cc1 (stereo not shown) [Example 4, (1,5-Dimethylhexyl)carbamic acid 4-phenoxyphenyl ester] | 5 µM | inhibition in vivo at 100 mg/kg (cholesterol absorption; [2]): 89%; ED50 (cholesterol absorption): 13 mg/kg
O=C(Oc1ccc(Oc2ccccc2)cc1)N1CCC(c2ccccc2)CC1 [Example 5, 4-Phenyl1-piperidinecarboxylic acid 4-phenoxyphenl ester] | 33 µM | –
O=C(Oc1ccc(Oc2ccccc2)cc1)N1CCN(c2ccccc2)CC1 [Example 6, 4-Phenyl-1-piperazinecarboxylic acid 4-phenoxyphenyl ester] | 55 µM | –
O=C(Oc1ccc(Oc2ccccc2)cc1)N1CCOCC1 [Example 7, 4-Morpholinecarboxylic acid 4-phenoxyphenol ester] | 85 µM | –
CC1CCN(C(=O)Oc2ccc(Oc3ccccc3)cc2)CC1 [Example 8, 4-Methyl-1-piperidinecarboxylic acid 4-phenoxyphenyl ester] | – | inhibition in vivo at 65 mg/kg (cholesterol absorption; [2]): 90%; ED50 (cholesterol absorption): 10 mg/kg
CN1CCN(C(=O)Oc2ccc(Oc3ccccc3)cc2)CC1 [Example 9, 4-Methyl-1-piperazinecarboxylic acid 4-phenoxyphenyl ester] | > 100 µM | inhibition in vivo at 100 mg/kg (cholesterol absorption; [2]): 40%
O=C(Oc1ccc(Oc2ccccc2)cc1)N1CCSCC1 [Example 10, 4-Thiomorpholinecarboxylic acid 4-phenoxyphenyl ester] | 1.1 µM | inhibition in vivo at 65 mg/kg (cholesterol absorption; [2]): 74%; ED50 (cholesterol absorption): 14 mg/kg
CCCCCCCCNC(=O)Oc1ccc(Oc2ccccc2)cc1 [Example 11, Octylcarbamic acid 4phenoxyphenyl ester] | 20 µM | –
O=C(Oc1ccc(Oc2ccccc2)cc1)N1CCCC1 [Example 12, 1-Pyrrolidinecarboxylic acid 4-phenoxyphenyl ester] | 0.3 µM | inhibition in vivo at 65 mg/kg (cholesterol absorption; [2]): 43%
O=C(NC1CCCCC1)Oc1ccc(Oc2ccccc2)cc1 [Example 13, Cyclohexylcarbamic acid 4-phenoxyphenyl ester] | 6.7 µM | –
O=C(NCC1CCCCC1)Oc1ccc(Oc2ccccc2)cc1 [Example 14, Cyclohexylmethylcarbamic acid 4phenoxyphenyl ester] | 9.3 µM | –
O=C(NC12CC3CC(CC(C3)C1)C2)Oc1ccc(Oc2ccccc2)cc1 [Example 15] | 17.5 µM | inhibition in vivo at 100 mg/kg (cholesterol absorption; [2]): 76%
CC(C)(C)CC(C)(C)NC(=O)Oc1ccc(Oc2ccccc2)cc1 [Example 16, (1,1,3,3-Tetramethylbutyl)carbamic acid 4-phenoxyphenyl ester] | > 100 µM | –
CCCCC(CC)NC(=O)Oc1ccc(Oc2ccccc2)cc1 (stereo not shown) [Example 17, (1-Ethylpentyl)carbamic acid 4-phenoxyphenyl ester] | 13.3 µM | –
CC(C)CC(C)NC(=O)Oc1ccc(Oc2ccccc2)cc1 (stereo not shown) [Example 18, (1,3-Dimethylbutyl)carbamic acid 4phenoxyphenyl ester] | 16.5 µM | –
CCCCNC(=O)Oc1ccc(Oc2ccc(C)cc2)cc1 [Example 19, Butylcarbamic acid 4-(4-methylphenoxy)phenyl ester] | 5.4 µM | –
CCCCNC(=O)Oc1ccc(Oc2ccc([N+](=O)[O-])cc2)cc1 [Example 20, Butylcarbamic acid 4-(4-nitrophenoxy)phenyl ester] | 7.6 µM | inhibition in vivo at 65 mg/kg (cholesterol absorption; [2]): 27%
CCCCNC(=O)Oc1ccc(Oc2ccc(Cl)cc2)cc1 [Example 21, Butylcarbamic acid 4-(4-chlorophenoxy)phenyl ester] | 6.1 µM | –
CCCCNC(=O)Oc1c(C)cc(Oc2ccc(C)cc2)cc1C [Example 22, Butylcarbamic acid 2,6-dimethyl-4-(4-methylphenoxy)phenyl ester] | – | inhibition at 30 µM ([1]; at 30 μM): 20%

SMILES | IC50 [1] | other results
Cc1ccc(Oc2ccc(OC(=O)N3CCC(C)CC3)cc2)cc1 [Example 23, 4-Methyl-1-piperidinecarboxylic acid 4-(4-methylphenoxy)phenyl ester] | 0.27 µM | inhibition in vivo at 65 mg/kg (cholesterol absorption; [2]): 43%
Cc1ccc(Oc2ccc(OC(=O)NC(C)CCCC(C)C)cc2)cc1 (stereo not shown) [Example 24, (1,5-Dimethylhexyl)carbamic acid 4-(4-methylphenoxy)phenyl ester] | 5.6 µM | –
CC1CCN(C(=O)Oc2ccc(Oc3ccc(Cl)cc3)cc2)CC1 [Example 25, 4-Methyl-1-piperidinecarboxylic acid 4-(4-chlorophenoxy)phenyl ester] | 0.17 µM | inhibition in vivo at 65 mg/kg (cholesterol absorption; [2]): 61%
CCCCCC(C)NC(=O)Oc1ccc(Oc2ccccc2)cc1 (stereo not shown) [Example 26] | 2.9 µM | –
CC(C)CCCC(C)NC(=O)Oc1ccc(Oc2ccc(Cl)cc2)cc1 (stereo not shown) [Example 27, (1,5-Dimethylhexyl)carbamic acid 4-(4-chlorophenoxy)phenyl ester] | 7.1 µM | –
CCCCNC(=O)Oc1ccc(Oc2ccccc2)cc1F [Example 28, Butylcarbamic acid 2-fluoro-4-phenoxyphenyl ester] | 1.9 µM | –
CCCCNC(=O)Oc1ccc(Oc2ccc(OC)cc2)cc1 [Example 29, Butylcarbamic acid 4-(4-methoxyphenoxy)phenyl ester] | 13 µM | –
COc1ccc(Oc2ccc(OC(=O)N3CCC(C)CC3)cc2)cc1 [Example 30, 4-Methyl-1-piperidinecarboxylic acid 4-(4-methoxyphenoxy)phenyl ester] | 1.2 µM | inhibition in vivo at 65 mg/kg (cholesterol absorption; [2]): 83%
COc1ccc(Oc2ccc(OC(=O)NC(C)CCCC(C)C)cc2)cc1 (stereo not shown) [Example 31, (1,5-Dimethylhexyl)carbamic acid 4-(4-methoxyphenoxy)phenyl ester] | 26 µM | –
CCCCNC(=O)Oc1ccc(Oc2ccc(C(C)(C)C)cc2)cc1 [Example 32, Butylcarbamic acid 4-[4-(1,1-dimethylethyl)phenoxy]phenyl ester] | > 100 µM | –
CCCCCCNC(=O)Oc1ccc(Oc2ccccc2)cc1 [Example 36, Hexylcarbamic acid 4-phenoxyphenyl ester] | 1.7 µM | –
CC(C)CCCC(C)NC(=O)Oc1ccc(Oc2ccccc2)cc1F (stereo not shown) [Example 37, (1,5-Dimethylhexyl)carbamic acid 2-fluoro-4-phenoxyphenyl ester] | 1.4 µM | –
CC1(C)CCN(C(=O)Oc2ccc(Oc3ccccc3)cc2)CC1 [Example 38, 4,4-Dimethyl-1piperidinecarboxylic acid 4-phenoxyphenol ester] | 0.23 µM | inhibition in vivo at 50 mg/kg (cholesterol absorption; [2]): 86%
CC1CCCN(C(=O)Oc2ccc(Oc3ccccc3)cc2)C1 (stereo not shown) [Example 39, 3-Methyl-1-piperidinecarboxylic acid 4-phenoxyphenyl ester] | 0.88 µM | inhibition in vivo at 50 mg/kg (cholesterol absorption; [2]): 73%
O=C(Oc1ccc(Oc2ccccc2)cc1)N1CCCCCC1 [Example 40, Hexahydro-1H-azepine-1-carboxylic acid 4-phenoxyphenyl ester] | 19 µM | –
CC1CCN(C(=O)Oc2ccc(Oc3ccccc3)cc2F)CC1 [Example 41, 4-Methyl-1-piperidinecarboxylic acid 2-fluoro-4-phenoxyphenyl ester] | 0.03 µM | inhibition in vivo at 50 mg/kg (cholesterol absorption; [2]): 73%
CCC1CCN(C(=O)Oc2ccc(Oc3ccccc3)cc2)CC1 [Example 42, 4-Ethyl-1-piperidinecarboxylic acid 4-phenoxyphenyl ester] | 0.05 µM | inhibition in vivo at 50 mg/kg (cholesterol absorption; [2]): 81%
CCOC(=O)C1CCN(C(=O)Oc2ccc(Oc3ccccc3)cc2)CC1 [Example 43, 1,4-Piperidinedicarboxylic acid 4-ethyl-1-(4phenoxyphenyl) diester] | 4.5 µM | inhibition in vivo at 50 mg/kg (cholesterol absorption; [2]): 60%
CCCCNC(=O)Oc1ccc(Oc2ccccc2)cc1C(=O)OC [Example 50] | 5.1 µM | –
O=C(Oc1ccc(Oc2ccccc2)cc1)N1CCC(CO)CC1 [Example 56, 4-(Hydroxymethyl)-1-piperidinecarboxylic acid 4-phenoxyphenyl ester] | 2.1 µM | –
O=C(Oc1ccc(Oc2ccccc2)cc1)N1CCC(CI)CC1 [Example 59, 4-(Iodomethyl)-1-piperidinecarboxylic acid 4-phenoxyphenyl ester] | 0.27 µM | –
CCCCCCN(CCCCCC)CC1CCN(C(=O)Oc2ccc(Oc3ccccc3)cc2)CC1 [Example 62, 4-(Dihexylaminomethyl)-1-piperidinecarboxylic acid 4-phenoxyphenyl ester] | 15 µM | –
